Reference: patent US6372457B1, “Process and materials for production of glucosamine” (Arkion Life Sciences LLC, priority 1997, dated 2002)

Target: T1, glucosamine-6-phosphate synthase (Escherichia coli, UniProt P17169)
T1 construct: allowed mutagenesis of a 2247 base pair region that included the entire glmS gene; made in house; host or cells: E. coli W3110-derived (DE3) production strains with integrated T7-glmS cassette; crude extract
Assay type: biochemical
Settings: spectrophotometric assay, FIG. 5
Method: In the spectrophotometric assay, 1 mL reactions containing 50 mM KH2PO4/K2HPO4, 10 nM fructose-6-phosphate, 6 mM L-glutamine, 10 mM KCl, 0.6 mM acetylpyridine adenine dinucleotide (APAD), and 50-60 Units of L-glutamic dehydrogenase (Sigma Type II from bovine liver) were run at room temperature. The activity was followed by monitoring the absorbance at 365 nm after the addition of extract and corrected for the small absorbance increase observed in the absence of extract. The activity was calculated using a molar extinction coefficient for APAD of 9100.
Using the spectrophotometric assay for glucosamine-6-phosphate synthase as described in Example 2, the effects of glucosamine-6-phosphate and glucosamine on glucosamine-6-phosphate synthase were measured. For determination of product inhibition, assays were run in the presence of various concentrations of added glucosamine-6-phosphate.
The strains were grown overnight in LB broth containing 100 μg/mL ampicillin and 1 mM IPTC. […]
Strains 2123-12, 2123-49, 2123-54, 2123-124, 2123-149, and 2123-151, described in the examples above, were grown overnight in LB broth at 37° C. then transferred to fresh LB broth. Cultures were grown to an absorbance at 600 nm of 0.8 to 0.9, then induced for GlcN6P synthase production by the addition of 1 mM IPTG. […]

T1 sequence (P17169 2-609): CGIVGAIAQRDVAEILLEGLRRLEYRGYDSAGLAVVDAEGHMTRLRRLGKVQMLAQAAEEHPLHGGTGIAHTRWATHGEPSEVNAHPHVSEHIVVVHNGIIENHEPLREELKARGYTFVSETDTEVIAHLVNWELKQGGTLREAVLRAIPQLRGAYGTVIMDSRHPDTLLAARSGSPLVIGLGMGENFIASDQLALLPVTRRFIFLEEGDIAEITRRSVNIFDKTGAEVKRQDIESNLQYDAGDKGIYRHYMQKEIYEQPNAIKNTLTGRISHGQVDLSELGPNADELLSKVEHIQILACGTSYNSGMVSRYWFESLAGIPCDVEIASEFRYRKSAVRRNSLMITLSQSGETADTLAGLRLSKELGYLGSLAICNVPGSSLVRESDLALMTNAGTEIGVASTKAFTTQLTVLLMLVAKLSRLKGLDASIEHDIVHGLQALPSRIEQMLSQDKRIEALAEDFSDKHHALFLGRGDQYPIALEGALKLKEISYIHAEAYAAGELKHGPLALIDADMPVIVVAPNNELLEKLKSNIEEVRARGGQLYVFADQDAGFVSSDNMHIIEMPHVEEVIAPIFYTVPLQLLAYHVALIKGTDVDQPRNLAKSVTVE

Structure (SMILES) | Inhibition of glucosamine-6-phosphate synthase by the added substance
N[C@H]1C(O)O[C@H](COP(=O)(O)O)[C@@H](O)[C@@H]1O (some centres unmarked) [glucosamine-6-phosphate] | significantly inhibited
N[C@H]1C(O)O[C@H](CO)[C@@H](O)[C@@H]1O (some centres unmarked) [glucosamine] | slightly inhibited
